Laboratory results from patent US7265129B2, “Anti-infective biaryl compounds” (priority 2002, dated 2007).

Legend:
B. cereus ATCC 11778 = assay: MIC, NCCLS broth microdilution, B. cereus; type: cell-based, Bacillus cereus
Procedure, shortened: (§1)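 MICs determined by broth microdilution per NCCLS M7-A4 and M11-A4; antifungal testing followed NCCLS M27-T and the Manual of Clinical Microbiology method.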

C. albicans ATCC 38247 = assay: MIC, antifungal assay, C. albicans; type: cell-based, Candida albicans
Procedure, shortened: as §1

E. faecalis ATCC 29212 = assay: MIC, NCCLS broth microdilution, E. faecalis; type: cell-based, Enterococcus faecalis
Procedure, shortened: as §1

S. aureus ATCC 13709 = assay: MIC, NCCLS broth microdilution, S. aureus MSSA; type: cell-based, Staphylococcus aureus; conditions: S. aureus ATCC 13709, methicillin sensitive strain (MSSA)
Procedure, shortened: as §1

S. aureus ATCC 27660 = assay: MIC, NCCLS broth microdilution, S. aureus MRSA; type: cell-based, Staphylococcus aureus; conditions: S. aureus ATCC 27660, methicillin resistant strain (MRSA)
Procedure, shortened: as §1

S. aureus ATCC 33591 = assay: MIC, NCCLS broth microdilution, S. aureus ATCC 33591; type: cell-based, Staphylococcus aureus
Procedure, shortened: as §1

S. pneumoniae ATCC 49619 = assay: MIC, NCCLS broth microdilution, S. pneumoniae; type: cell-based, Streptococcus pneumoniae
Procedure, shortened: as §1

E. faecium ATCC 51559 = assay: MIC, E. faecium VRE; type: cell-based, Enterococcus faccium; conditions: Table C; E. faecium ATCC 51559, vancomycin resistant strain (VRE)
Protocol: (§2) Compounds according to this invention were screened for their in vitro activities against selected species of bacteria and fungi. The minimal inhibition concentration (MIC) of these compounds was determined using the National Committee for Clinical Laboratory Standards (NCCLS) broth microdilution assay in microtiter plates, as set forth in: (1) the guidelines of the National Committee for Clinical Laboratory Standards (NCCLS) Document M7-A4 (NCCLS, 1997); (2) the guidelines of the National Committee for Clinical Laboratory Standards (NCCLS) Document M11-A4 (NCCLS, 1997); and (3) the guidelines and reference method of the National Committee for Clinical Laboratory Standards (NCCLS) Document M27-T (NCCLS, 1995). For antifungal assays, the method recommended in Murray, P R., 1995 Manual of Clinical Microbiology (ASM Press, Washington, D.C.), was employed.
(§3) Additionally, some compounds were screened against Enterococcus faccium (ATCC 51559, a vancomycin resistant strain (VRE)), Staphylococcus epidermidis (ATCC 12228), Streptococcus pneumoniae (ATCC 51422, a penicillin resistant strain (PRSP)), and/or Streptococcus pyogenes (ATCC 49399).

[1] = test system: S. epidermidis ATCC 12228; assay: MIC, S. epidermidis; type: cell-based, Staphylococcus epidermidis; conditions: Table C
Protocol: as §2, §3

[2] = MIC, Table C (organism not given); type: cell-based
Protocol: as §2, §3

Row | Compound | Minimum Inhibitory Concentration (MIC), organism A (B. cereus ATCC 11778) | Minimum Inhibitory Concentration (MIC), organism B (C. albicans ATCC 38247) | Minimum Inhibitory Concentration (MIC), organism C (E. faecalis ATCC 29212) | Minimum Inhibitory Concentration (MIC), organism D (S. aureus ATCC 13709) | Minimum Inhibitory Concentration (MIC), organism E (S. aureus ATCC 27660) | Minimum Inhibitory Concentration (MIC), organism F (S. aureus ATCC 33591) | Minimum Inhibitory Concentration (MIC), organism G (S. pneumoniae ATCC 49619) | Minimum Inhibitory Concentration (MIC), organism A (E. faecium ATCC 51559) | Minimum Inhibitory Concentration (MIC), organism B [1] | Minimum Inhibitory Concentration (MIC), organism E [2]
1 | CN(C)CCCn1cc(NC(=O)c2ccc(F)cc2F)cc1C(=O)Nc1cc(-c2nc3ccccc3[nH]2)n(C)c1 [Compound A-16] | +++ (MIC ≦ 4 μg/mL) | + (12 ≦ MIC ≦ 32 μg/mL) | +++ (MIC ≦ 4 μg/mL) | +++ (MIC ≦ 4 μg/mL) | +++ (MIC ≦ 4 μg/mL) | +++ (MIC ≦ 4 μg/mL) | +++ (MIC ≦ 4 μg/mL) | +++ (MIC ≦ 4 pg/mL) | +++ (MIC ≦ 4 pg/mL) | +++ (MIC ≦ 4 pg/mL)
2 | Cn1cc(NC(=O)c2cc(NC(=O)c3sccc3Cl)cn2CCCN2CCC(F)(F)CC2)cc1-c1nc2ccccc2[nH]1 [Compound A-54] | +++ (MIC ≦ 4 μg/mL) | >32 µg/mL | +++ (MIC ≦ 4 μg/mL) | +++ (MIC ≦ 4 μg/mL) | +++ (MIC ≦ 4 μg/mL) | +++ (MIC ≦ 4 μg/mL) | +++ (MIC ≦ 4 μg/mL) | +++ (MIC ≦ 4 pg/mL) | +++ (MIC ≦ 4 pg/mL) | +++ (MIC ≦ 4 pg/mL)
3 | CN(C)CCCn1cc(NC(=O)c2cc3ccccc3cn2)cc1C(=O)Nc1cc(-c2nc3ccccc3[nH]2)n(C)c1 [Compound A-1] | +++ (MIC ≦ 4 μg/mL) | +++ (MIC ≦ 4 μg/mL) | +++ (MIC ≦ 4 μg/mL) | +++ (MIC ≦ 4 μg/mL) | +++ (MIC ≦ 4 μg/mL) | +++ (MIC ≦ 4 μg/mL) | +++ (MIC ≦ 4 μg/mL) | +++ (MIC ≦ 4 pg/mL) | +++ (MIC ≦ 4 pg/mL) | +++ (MIC ≦ 4 pg/mL)
4 | Cn1cc(NC(=O)c2cc(NC(=O)c3sccc3Cl)cn2CCCN2CCOCC2)cc1-c1nc2ccccc2[nH]1 [Compound A-50] | +++ (MIC ≦ 4 μg/mL) | >32 µg/mL | +++ (MIC ≦ 4 μg/mL) | +++ (MIC ≦ 4 μg/mL) | +++ (MIC ≦ 4 μg/mL) | +++ (MIC ≦ 4 μg/mL) | +++ (MIC ≦ 4 μg/mL) | +++ (MIC ≦ 4 pg/mL) | +++ (MIC ≦ 4 pg/mL) | +++ (MIC ≦ 4 pg/mL)
5 | Cn1cc(NC(=O)c2cc(NC(=O)c3sccc3Cl)cn2CCCN2CCCCC2)cc1-c1nc2ccccc2[nH]1 [Compound A-49] | +++ (MIC ≦ 4 μg/mL) | + (12 ≦ MIC ≦ 32 μg/mL) | +++ (MIC ≦ 4 μg/mL) | +++ (MIC ≦ 4 μg/mL) | +++ (MIC ≦ 4 μg/mL) | +++ (MIC ≦ 4 μg/mL) | +++ (MIC ≦ 4 μg/mL) | +++ (MIC ≦ 4 pg/mL) | +++ (MIC ≦ 4 pg/mL) | +++ (MIC ≦ 4 pg/mL)
6 | Cn1cc(NC(=O)c2cc3ccccc3cn2)cc1C(=O)Nc1cc(-c2nc3ccc(Cl)cc3[nH]2)n(C)c1 [Compound A-7] | +++ (MIC ≦ 4 μg/mL) | >32 µg/mL | +++ (MIC ≦ 4 μg/mL) | +++ (MIC ≦ 4 μg/mL) | +++ (MIC ≦ 4 μg/mL) | +++ (MIC ≦ 4 μg/mL) | +++ (MIC ≦ 4 μg/mL) | +++ (MIC ≦ 4 pg/mL) | +++ (MIC ≦ 4 pg/mL) | +++ (MIC ≦ 4 pg/mL)
7 | Cn1cc(NC(=O)c2cc(NC(=O)c3sccc3Cl)cn2CCCN2CCSCC2)cc1-c1nc2ccccc2[nH]1 [Compound A-51] | +++ (MIC ≦ 4 μg/mL) | >32 µg/mL | +++ (MIC ≦ 4 μg/mL) | +++ (MIC ≦ 4 μg/mL) | +++ (MIC ≦ 4 μg/mL) | +++ (MIC ≦ 4 μg/mL) | +++ (MIC ≦ 4 μg/mL) | +++ (MIC ≦ 4 pg/mL) | +++ (MIC ≦ 4 pg/mL) | +++ (MIC ≦ 4 pg/mL)
8 | Cc1ccc2nc(-c3cc(NC(=O)c4cc(NC(=O)c5cc6ccccc6cn5)cn4C)cn3C)[nH]c2c1 [Compound A-2] | +++ (MIC ≦ 4 μg/mL) | >32 µg/mL | +++ (MIC ≦ 4 μg/mL) | +++ (MIC ≦ 4 μg/mL) | +++ (MIC ≦ 4 μg/mL) | +++ (MIC ≦ 4 μg/mL) | +++ (MIC ≦ 4 μg/mL) | +++ (MIC ≦ 4 pg/mL) | +++ (MIC ≦ 4 pg/mL) | +++ (MIC ≦ 4 pg/mL)
9 | Cn1cc(NC(=O)c2cc(NC(=O)c3sc4ccccc4c3Cl)cn2CCCN2CCCCC2)cc1-c1nc2ccccc2[nH]1 [Compound A-23] | +++ (MIC ≦ 4 μg/mL) | + (12 ≦ MIC ≦ 32 μg/mL) | +++ (MIC ≦ 4 μg/mL) | +++ (MIC ≦ 4 μg/mL) | +++ (MIC ≦ 4 μg/mL) | +++ (MIC ≦ 4 μg/mL) | +++ (MIC ≦ 4 μg/mL) | – | – | –
10 | Cn1cc(NC(=O)c2sccc2Cl)cc1C(=O)Nc1cc(-c2nc3ccccc3[nH]2)n(C)c1 [Compound A-47] | +++ (MIC ≦ 4 μg/mL) | + (12 ≦ MIC ≦ 32 μg/mL) | +++ (MIC ≦ 4 μg/mL) | +++ (MIC ≦ 4 μg/mL) | +++ (MIC ≦ 4 μg/mL) | +++ (MIC ≦ 4 μg/mL) | +++ (MIC ≦ 4 μg/mL) | – | – | –
